Consider 60 molecules from patent US8530460B2, “Azetidine derivatives” (Boehringer Ingelheim International GmbH, priority 2011, dated 2013).

The target of this assay is human ACC2 (Homo sapiens (Human), UniProt O00763). The assay can be described thus: ACC2 assay (spectrophotometric 384 well assay, NADH-linked coupled lactate dehydrogenase/pyruvate kinase). The assay is classed as biochemical. Conditions: hACC2 construct lacking 128 N-terminal amino acids; 25° C., 340 nm, 15 minutes. The method, then:
Spectrophotometric 384 Well Assay
Malonyl CoA formation by acetyl CoA carboxylases is stoichometrically linked to the consumption of ATP. ACC2 activity is measured in a NADH-linked kinetic method measuring ADP generated during the ACC reaction using a coupled lactate dehydrogenase/pyruvate kinase reaction.
For biological testing, a human ACC2 construct which lacks the 128 amino acids at the N-terminus for increased solubility (nt 385-6966 in Genbank entry AJ575592) is cloned. The protein is then expressed in insect cells using a baculoviral expression system. Protein purification is performed by anion exchange.
All compounds are dissolved in dimethyl sulfoxide (DMSO) to a concentration of 10 mM.
Assay reactions are then carried out in 384-well plates, with hACC2 in an appropriate dilution and at final assay concentrations (f.c.) of 100 mM Tris (pH 7.5), 10 mM trisodium citrate, 25 mM KHCO3, 10 mM MgCl2, 0.5 mg/ml BSA, 3.75 mM reduced L-glutathione, 15 U/ml lactate dehydrogenase, 0.5 mM phosphoenolpyruvate, 15 U/ml pyruvate kinase, compounds at different concentrations at final DMSO concentrations of 1%.
The enzymatic reaction is then started by addition of a mixture of NADH, acetyl Coenzyme A (both 200 μM f.c.) and ATP (500 uM f.c.). The decrease of the optical density (slope S) is then determined at 25° C. at a wavelength of 340 nm over 15 minutes in a spectrophotometric reader.
Each assay microtiter plate contains wells with vehicle instead of compound as controls for the non-inhibited enzyme (100% CTL; ‘HIGH’) and wells without acetyl-CoA as controls for non-specific NADH degradation (0% CTL; ‘LOW’).
The slope S is used for calculation of % CTL=(S(compound)−S(‘LOW’))/(S(‘HIGH’)—S(‘LOW’))*100. Compounds will give values between 100% CTL (no inhibition) and 0% CTL (complete inhibition).
For IC50 value determination, the sample slope in the presence of the test compound after subtraction of the low controls (S(compound)−S(‘LOW’)) are used.
An IC50 value is derived from the compound slopes at different dosages after subtraction of the low controls (S(compound)−S(‘LOW’)) by non-linear regression curve fitting (equation y=(A+((B−A)/(1+((C/x)^D))))).

One may read the IC50 as the concentration needed to halve the response being measured.

Sequence of human ACC2 (O00763 129-2458): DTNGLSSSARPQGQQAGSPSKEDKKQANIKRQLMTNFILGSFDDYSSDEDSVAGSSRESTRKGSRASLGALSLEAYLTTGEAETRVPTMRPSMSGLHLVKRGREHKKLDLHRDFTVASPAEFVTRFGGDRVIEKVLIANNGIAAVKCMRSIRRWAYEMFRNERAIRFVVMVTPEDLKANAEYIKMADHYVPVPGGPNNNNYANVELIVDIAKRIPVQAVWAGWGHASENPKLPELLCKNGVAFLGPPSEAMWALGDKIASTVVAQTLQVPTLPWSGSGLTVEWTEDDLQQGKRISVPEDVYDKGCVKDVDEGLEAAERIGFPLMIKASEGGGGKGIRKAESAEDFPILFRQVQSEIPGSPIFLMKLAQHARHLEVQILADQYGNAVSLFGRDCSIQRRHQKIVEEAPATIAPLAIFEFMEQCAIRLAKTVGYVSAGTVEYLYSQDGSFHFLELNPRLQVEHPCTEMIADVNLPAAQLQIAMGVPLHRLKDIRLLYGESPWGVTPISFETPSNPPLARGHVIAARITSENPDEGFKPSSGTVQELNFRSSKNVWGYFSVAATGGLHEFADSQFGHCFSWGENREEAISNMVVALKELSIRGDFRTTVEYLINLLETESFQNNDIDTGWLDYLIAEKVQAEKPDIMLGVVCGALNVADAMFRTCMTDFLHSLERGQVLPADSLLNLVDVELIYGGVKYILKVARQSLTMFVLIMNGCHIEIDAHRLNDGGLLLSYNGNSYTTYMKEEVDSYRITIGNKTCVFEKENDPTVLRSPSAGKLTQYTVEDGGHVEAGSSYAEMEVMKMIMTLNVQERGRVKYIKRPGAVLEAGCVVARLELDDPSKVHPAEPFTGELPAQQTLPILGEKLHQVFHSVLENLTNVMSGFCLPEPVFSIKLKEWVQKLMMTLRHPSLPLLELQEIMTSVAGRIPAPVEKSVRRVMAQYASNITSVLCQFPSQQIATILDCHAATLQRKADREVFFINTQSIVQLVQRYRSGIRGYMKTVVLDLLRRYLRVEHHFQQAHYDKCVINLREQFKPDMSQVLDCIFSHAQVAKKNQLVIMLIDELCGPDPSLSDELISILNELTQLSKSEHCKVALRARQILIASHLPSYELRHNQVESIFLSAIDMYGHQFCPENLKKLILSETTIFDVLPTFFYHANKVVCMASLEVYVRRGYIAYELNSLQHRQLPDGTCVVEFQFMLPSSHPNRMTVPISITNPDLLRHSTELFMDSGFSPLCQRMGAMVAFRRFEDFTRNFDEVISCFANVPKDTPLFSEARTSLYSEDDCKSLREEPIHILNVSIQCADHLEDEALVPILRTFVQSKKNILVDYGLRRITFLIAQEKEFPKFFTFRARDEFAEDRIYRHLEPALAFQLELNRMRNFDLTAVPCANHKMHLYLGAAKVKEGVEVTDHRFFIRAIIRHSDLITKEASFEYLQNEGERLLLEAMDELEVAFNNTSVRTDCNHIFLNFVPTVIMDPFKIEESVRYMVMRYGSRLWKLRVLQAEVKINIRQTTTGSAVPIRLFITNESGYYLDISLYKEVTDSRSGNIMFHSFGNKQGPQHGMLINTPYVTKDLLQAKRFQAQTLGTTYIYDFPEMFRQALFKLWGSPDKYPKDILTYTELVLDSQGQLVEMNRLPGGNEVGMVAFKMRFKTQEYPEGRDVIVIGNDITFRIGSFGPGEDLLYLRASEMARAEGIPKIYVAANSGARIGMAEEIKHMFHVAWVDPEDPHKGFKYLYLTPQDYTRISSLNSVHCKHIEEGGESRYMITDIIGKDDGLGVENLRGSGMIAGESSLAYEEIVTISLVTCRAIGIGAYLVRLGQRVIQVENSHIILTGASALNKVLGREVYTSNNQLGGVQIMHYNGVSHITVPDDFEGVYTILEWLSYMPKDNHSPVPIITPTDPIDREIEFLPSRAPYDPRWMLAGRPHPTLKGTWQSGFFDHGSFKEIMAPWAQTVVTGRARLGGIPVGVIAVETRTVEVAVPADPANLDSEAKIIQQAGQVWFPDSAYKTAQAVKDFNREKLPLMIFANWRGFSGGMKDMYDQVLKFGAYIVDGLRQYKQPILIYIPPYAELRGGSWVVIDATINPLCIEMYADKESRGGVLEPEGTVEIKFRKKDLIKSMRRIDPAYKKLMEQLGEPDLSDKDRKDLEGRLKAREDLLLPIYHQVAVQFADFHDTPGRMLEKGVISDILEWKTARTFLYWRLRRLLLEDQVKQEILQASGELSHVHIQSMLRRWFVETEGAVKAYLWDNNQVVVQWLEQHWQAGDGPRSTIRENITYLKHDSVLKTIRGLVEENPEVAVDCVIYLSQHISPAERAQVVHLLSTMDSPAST

Molecule `CC(=O)N[C@@H](C)c1ccc(OC2CN(c3nnc(-c4ccccc4)s3)C2)cc1` [Example 3.9] returned an IC50 of 3820 nM. The result for `CC(=O)N[C@@H](C)c1ccc(OC2CN(c3ccc4ccccc4n3)C2)cc1` [Example 4.2] reads 2040 nM; that for `CC(=O)N[C@@H](C)c1ccc(OC2CN(c3nc4ccccc4o3)C2)cc1` [Example 4.3], 480 nM. In the case of `CC(=O)N[C@@H](C)c1ccc(OC2CN(c3cc(C(F)(F)F)cc(C)n3)C2)cc1` [Example 4.4], half-maximal inhibition (IC50) was put at 3990 nM.

In turn, `CC(=O)N[C@@H](C)c1ccc(OC2CN(c3ccc(C(C)C)cn3)C2)cc1` [Example 4.5] had an IC50 of 2450 nM. In the case of `CC(=O)N[C@@H](C)c1ccc(OC2CN(c3nccc4ccccc34)C2)cc1` [Example 4.6], the midpoint of inhibition, the IC50, lay at 6230 nM. `CC(=O)N[C@@H](C)c1ccc(OC2CN(c3cc(Cl)ccn3)C2)cc1` [Example 4.7] yielded an IC50 of 3470 nM.

On to `CC(=O)N[C@@H](C)c1ccc(OC2CN(c3ccc(-c4ccccc4)cn3)C2)cc1` [Example 4.8], for which it took 240 nM to reach half-maximal inhibition (IC50). As for `CC(=O)N[C@@H](C)c1ccc(OC2CN(c3ccnc(C(F)(F)F)n3)C2)cc1` [Example 4.9], the figure is 720 nM; as for `CC(=O)N[C@@H](C)c1ccc(OC2CN(c3nccc(C(F)(F)F)c3F)C2)cc1` [Example 4.10], 370 nM. As for `CCOc1cccc(N2CC(Oc3ccc([C@H](C)NC(C)=O)cc3)C2)n1` [Example 4.11], the IC50 was 3620 nM.

`CC(=O)N[C@@H](C)c1ccc(OC2CN(c3ccc(C4(C#N)CC4)cn3)C2)cc1` [Example 4.12] gave an IC50 of 1060 nM. In the case of `CC(=O)N[C@@H](C)c1ccc(OC2CN(c3nc4ccccc4s3)C2)cc1` [Example 4.13], the IC50 came to 250 nM. Molecule `CC(=O)N[C@@H](C)c1ccc(OC2CN(c3cc(C(F)(F)F)ncn3)C2)cc1` [Example 4.14] returned an IC50 of 6110 nM.

In turn, `CC(=O)N[C@@H](C)c1ccc(OC2CN(c3ccc4cc(Cl)ccc4n3)C2)cc1` [Example 4.15] gave an IC50 of 690 nM.

In turn, `CC(=O)N[C@@H](C)c1ccc(OC2CN(c3nccc(C(F)(F)F)n3)C2)cc1` [Example 4.16] showed an IC50 of 470 nM. The result for `CC(=O)N[C@@H](C)c1ccc(OC2CN(c3ccc(Br)cn3)C2)cc1` [Example 4.17] reads 290 nM; that for `CC(=O)N[C@@H](C)c1ccc(OC2CN(c3cc(Br)ccn3)C2)cc1` [Example 4.18], 1800 nM.

The molecule `CC(=O)N[C@@H](C)c1ccc(OC2CN(c3ccc(C(F)(F)F)cn3)C2)cc1` [Example 4.19] displayed an IC50 of 200 nM. As for `CC(=O)N[C@@H](C)c1ccc(OC2CN(c3cc(C(F)(F)F)ccn3)C2)cc1` [Example 4.20], the figure is 770 nM. Regarding `CC(=O)N[C@@H](C)c1ccc(OC2CN(c3cccc(C(F)(F)F)n3)C2)cc1` [Example 4.21], 410 nM corresponded to half-maximal inhibition (IC50). The result for `COc1ccc2nc(N3CC(Oc4ccc([C@H](C)NC(C)=O)cc4)C3)ccc2c1` [Example 4.22] reads 450 nM; that for `CC(=O)N[C@@H](C)c1ccc(OC2CN(c3ncc4nc(-c5ccccc5)oc4n3)C2)cc1` [Example 4.23], 1180 nM. `CC(=O)N[C@@H](C)c1ccc(OC2CN(c3ncc(Cl)cn3)C2)cc1` [Example 4.24] gave an IC50 of 390 nM. As for `CC(=O)N[C@@H](C)c1ccc(OC2CN(c3noc4ccccc34)C2)cc1` [Example 4.25], the figure is 750 nM. Consider `CC(=O)N[C@@H](C)c1ccc(OC2CN(c3ncc4nc(-c5ccsc5)oc4n3)C2)cc1` [Example 4.26], for which the IC50 was found to be 13300 nM. As for `CC(=O)N[C@@H](C)c1ccc(OC2CN(c3ncc(C(C)(C)C)cn3)C2)cc1` [Example 4.27], the figure is 570 nM; as for `CC(=O)N[C@@H](C)c1ccc(OC2CN(c3cnc4ccccc4n3)C2)cc1` [Example 4.28], 360 nM; as for `CC(=O)N[C@@H](C)c1ccc(OC2CN(c3ccnc(C(F)(F)F)c3)C2)cc1` [Example 4.29], 1170 nM. The result for `CC(=O)N[C@@H](C)c1ccc(OC2CN(c3ncc(C(F)(F)F)cc3F)C2)cc1` [Example 4.31] reads 190 nM. Consider `CC(=O)N[C@@H](C)c1ccc(OC2CN(c3ccc(Cl)c(C(F)(F)F)n3)C2)cc1` [Example 4.32], for which inhibition was half-maximal at 100 nM (IC50). As for `CCOC(=O)c1cnc(N2CC(Oc3ccc([C@H](C)NC(C)=O)cc3)C2)nc1C(F)(F)F` [Example 4.33], the figure is 1730 nM. `CC(=O)N[C@@H](C)c1ccc(OC2CN(c3ncc(OC(C)C)cn3)C2)cc1` [Example 4.34] yielded an IC50 of 940 nM. As for `CC(=O)N[C@@H](C)c1ccc(OC2CN(c3ccc(Br)c(C#N)n3)C2)cc1` [Example 4.35], the figure is 1110 nM; as for `CCOC(=O)c1cc(C#N)c(N2CC(Oc3ccc([C@H](C)NC(C)=O)cc3)C2)nc1C(F)(F)F` [Example 4.36], 1140 nM.

Take `CC(=O)N[C@@H](C)c1ccc(OC2CN(c3ccc(F)c(C(F)(F)F)n3)C2)cc1` [Example 4.37]: half-maximal inhibition (IC50) required 290 nM. In turn, `CC(=O)N[C@@H](C)c1ccc(OC2CN(c3nc4ccccc4nc3C)C2)cc1` [Example 4.38] came in with an IC50 of 3050 nM. Molecule `CC(=O)N[C@@H](C)c1ccc(OC2CN(c3cncc(C(F)(F)F)c3)C2)cc1` [Example 4.40] registered an IC50 of 1050 nM. Molecule `CC(=O)N[C@@H](C)c1ccc(OC2CN(c3nc(-c4ccccc4)no3)C2)cc1` [Example 4.41] yielded an IC50 of 3480 nM. As to `CC(=O)N[C@@H](C)c1ccc(OC2CN(c3ncc(OCC4CC4(F)F)cn3)C2)cc1` (stereo partly drawn) [Example 4.42], the IC50 was 530 nM. With `CC(=O)N[C@@H](C)c1ccc(OC2CN(c3nc(C(F)(F)F)ccc3F)C2)cc1` [Example 4.43], the IC50 worked out at 530 nM.

Molecule `CC(=O)N[C@@H](C)c1ccc(OC2CN(c3ncc(C4CC4)cn3)C2)cc1` [Example 5.1, (S)—N-(1-(4-(1-(5-Cyclopropylpyrimidin-2-yl)azetidin-3-yloxy)phenyl)ethyl)acetamide] displayed an IC50 of 170 nM. Molecule `CC(=O)N[C@@H](C)c1ccc(OC2CN(c3ncc(C)cn3)C2)cc1` [Example 5.2] showed an IC50 of 2180 nM. `CC(=O)N[C@@H](C)c1ccc(OC2CN(c3ncc(-c4ccc(F)cc4)cn3)C2)cc1` [Example 6.1] registered an IC50 of 90 nM. The result for `COc1cc(-c2cnc(N3CC(Oc4ccc([C@H](C)NC(C)=O)cc4)C3)nc2)ccn1` [Example 6.2] reads 1740 nM; that for `CC(=O)NC(C)c1ccc(OC2CN(c3ncc(C4CC4)cn3)C2)cc1` (stereo not drawn) [Example 6.3], 150 nM; that for `CC(=O)N[C@@H](C)c1ccc(OC2CN(c3cccc(OCC4CC4)c3)C2)cc1` [Example 7.1], 1440 nM.

`CC(=O)N[C@@H](C)c1ccc(OC2CN(c3cccc(OCC4CC4(F)F)c3)C2)cc1` (stereo partly drawn) [Example 7.2] showed an IC50 of 1250 nM.

Consider `CC(=O)N[C@@H](C)c1ccc(OC2CN(c3cccc(OC4CCCC4)c3)C2)cc1` [Example 7.3], for which the IC50 came out at 780 nM. Regarding `CCCOc1ccc(N2CC(Oc3ccc([C@H](C)NC(=O)C4CC4)cc3)C2)c(OC)c1` [Example 8.1, (S)—N-(1-(4-(1-(2-Methoxy-4-propoxyphenyl)azetidin-3-yloxy)phenyl)ethyl)cyclopropanecarboxamide], the IC50 was determined as 7700 nM. As for `CCCOc1ccc(N2CC(Oc3ccc([C@H](C)NC(=O)CF)cc3)C2)c(OC)c1` [Example 8.2], the figure is 2370 nM. As for `CCCOc1ccc(N2CC(Oc3ccc([C@H](C)NC(=O)c4cn[nH]c4)cc3)C2)c(OC)c1` [Example 8.3], the figure is 1090 nM; as for `CCCOc1ccc(N2CC(Oc3ccc([C@H](C)NC(=O)c4cncs4)cc3)C2)c(OC)c1` [Example 8.4], 430 nM. The result for `C[C@H](NC(=O)c1cn[nH]c1)c1ccc(OC2CN(c3ncc(C4CC4)cn3)C2)cc1` [Example 8.5] reads 160 nM; that for `C[C@H](NC(=O)CC#N)c1ccc(OC2CN(c3ncc(C4CC4)cn3)C2)cc1` [Example 8.6], 1770 nM; that for `CCOc1ccc(N2CC(Oc3ccc([C@H](C)NC(=O)c4cn[nH]c4)cc3)C2)cc1` [Example 8.7], 50 nM. Molecule `CCOc1ccc(N2CC(Oc3ccc([C@H](C)NC(=O)CC#N)cc3)C2)cc1` [Example 8.8] yielded an IC50 of 430 nM. As for `CCOc1ccc(N2CC(Oc3ccc([C@H](C)NC(=O)C4(C)CC4)cc3)C2)cc1` [Example 8.9], the figure is 1150 nM. The result for `CCOc1ccc(N2CC(Oc3ccc([C@H](C)NC(=O)c4cnc(NC(=O)CO)s4)cc3)C2)cc1` [Example 8.10] reads 370 nM; that for `CCOc1ccc(N2CC(Oc3ccc([C@H](C)NC(=O)c4cccc(NC(C)=O)c4)cc3)C2)cc1` [Example 8.11], 2840 nM.
